The results in this text go back to patent US20100104546A1, “MODULATORS OF ANTIGEN-DEPENDENT T CELL PROLIFERATION” (CHILDREN, YOUTH AND WOMEN'S HEALTH SERVICE, priority 2007, published 2010).

In experiment [1] the test system is Th1 and Th2 cytokines. Put plainly: Cytokine levels of mitogen-stimulated splenocytes, ex vivo. Format: in vivo, mice. Conditions: 3 days. The procedure: Mice were sensitized with SRBC and after 5 days were injected with β-oxa-21:3n-3 or vehicle intraperitoneally. After 2 h spleens were removed, cell suspensions prepared and incubated in the presence of mitogens PHA/PMA or PMA/A23187. After 3 days of incubation, the culture fluids and were harvested and used to determine the levels of Th1 and Th2 cytokines. Baseline subtracted levels of cytokines plotted in the presence of vehicle or β-oxa-21:3n-3. The values represent the mean±SEM separate experiments each conducted in quintuplets.
6-7 weeks old Balb/c mice were injected subcutaneously with 100 μl of 10% sheep red blood cells (IMVS, Inc., Adelaide, Australia) After 5 days 100 ul of β-oxa-21:3n-3 at indicated amounts were injected intraperitoneally, intravenously or gavaged orally. In another experimental set up mice were given β-tha-21:3n-3 i.p. In a third approach mice were infected subcutaneously with 100 μl of Tetanus Toxoid (2,500 Lf/ml). Then 7 days later were given β-oxa-21:3n-3. At indicated time points mice were sacrificed and spleens were removed. Single cell suspensions were prepared and white blood cells (WBC) were enriched by passing through Ficoll-Paque Plus (GE Healthcare). Cells were washed with RPMI-1640 containing 10% fetal bovine serum, 10 mM Hepes, antibiotics and glutamine (RPMI-10) and counted using an automated Cell-Dyne 3500R (Abbott, Inc. MA) instrument. Cells were viable (>98%) as judged by trypan blue exclusion. (β-oxa-21:3n-3)- or vehicle-treated mouse samples (200,000/well) were mixed either with SRBC (600,000/well) with 100 μl of Tetanus toxoid (50 Lf/ml) or phytohaemaglutinin (PHA) (2 μg/ml) or with PHA plus phorbol myristate acetate (PMA) (10 ng/ml) or with PMA plus calcium ionophore A23187 ([…]). Cells were cultured in 96 well U bottom plates (Nunc, Inc. Denmark) for 3 days (except for TT −5 days) at 37° C. under humidified air containing 5% CO2. At some instances 50 μl of supernatants were transferred to a new plate and frozen immediately at −70° C. to be used for cytokine measurements. Thymidine (50 μl, 1 μCi/well) was added at final 16 hours of culture. Cells were harvested and thymidine incorporation was determined using a beta scintillation counter.
To determine whether or not these effects were due to non-specific suppression of the immune system, we examined the production of Th1 and Th2 cytokines in mitogen-activated mononuclear leukocytes. Splenocytes from (β-oxa-21:3n-3)- or vehicle-administered pre-immune animals were cultured for 3 days in the presence of PHA-PMA or PMA-A23187. The cell culture fluids were collected and cytokines measured.

Experiment [2] relates to circulating cytokine levels. Put plainly: Circulating cytokine levels in SRBC-sensitized mice after intravenous SRBC challenge. Format: in vivo. Conditions: serum, 80 mg/kg IP, 6 h after IV SRBC; ELISA.

`CC/C=C\C/C=C\C/C=C\CCCCCCCCOCC(=O)O` [β-oxa-21:3n-3]: in experiment [1] (PHA-PMA-stimulated splenocytes), the IL-2 secretion entry was “higher levels”; the “levels of IL-4, IL-5, TNFα and IFNγ” value is “no substantial increase”. Moreover, the IFNγ secretion entry in experiment [1] (PMA-A23187-stimulated splenocytes) was “reduction”. The cytokine secretion entry in experiment [1] (PMA-A23187-stimulated splenocytes, apart from IFNγ) was “did not result in any substantial differences”. Moreover, the TGFβ conc entry in experiment [2] is “(52 ± 6) × 10^3 pg/ml”.
